Patent publication US20240398828A1, “HETERO-ATOM CONTAINING COMPOUNDS AND USES THEREOF” (Kumquat Biosciences Inc., priority 2021, published 2024)

How the values were obtained:
PTPN1 (i.e., PTP1B) = biological target: T1, PTPN1 (i.e., PTP1B) (Homo sapiens, UniProt P18031); experiment: Phosphatase activity assay (DiFMUP substrate), PTP1B; assay type: biochemical; settings: compounds binned ≤1 uM or >1 uM
T1 sequence (P18031 1-435): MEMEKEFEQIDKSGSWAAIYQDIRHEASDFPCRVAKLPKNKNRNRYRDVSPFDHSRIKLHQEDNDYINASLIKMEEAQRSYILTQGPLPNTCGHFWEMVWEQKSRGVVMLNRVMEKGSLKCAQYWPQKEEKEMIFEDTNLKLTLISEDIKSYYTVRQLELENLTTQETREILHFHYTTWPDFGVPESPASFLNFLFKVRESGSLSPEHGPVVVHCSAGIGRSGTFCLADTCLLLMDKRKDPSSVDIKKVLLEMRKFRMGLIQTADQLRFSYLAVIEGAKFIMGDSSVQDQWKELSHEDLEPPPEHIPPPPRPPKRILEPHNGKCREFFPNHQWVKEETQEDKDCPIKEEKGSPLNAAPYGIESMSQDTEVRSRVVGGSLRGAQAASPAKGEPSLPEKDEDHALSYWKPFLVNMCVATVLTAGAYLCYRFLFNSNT
Outline: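 Continuous fluorogenic readout of DiFMUP dephosphorylation at room temperature, substrate set at Km for each phosphatase (about 45 μM in the PTPN2 assay). The buffer contains 1 mM DTT and 0.001% Tween-20, pH 7.5.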

PTPN2 (i.e., TC-PTP) = biological target: T2, PTPN2 (i.e., TC-PTP) (Homo sapiens, UniProt P17706); experiment: Phosphatase activity assay (DiFMUP substrate), PTPN2; assay type: biochemical; settings: compounds binned ≤1 uM or >1 uM
T2 sequence (P17706 1-415): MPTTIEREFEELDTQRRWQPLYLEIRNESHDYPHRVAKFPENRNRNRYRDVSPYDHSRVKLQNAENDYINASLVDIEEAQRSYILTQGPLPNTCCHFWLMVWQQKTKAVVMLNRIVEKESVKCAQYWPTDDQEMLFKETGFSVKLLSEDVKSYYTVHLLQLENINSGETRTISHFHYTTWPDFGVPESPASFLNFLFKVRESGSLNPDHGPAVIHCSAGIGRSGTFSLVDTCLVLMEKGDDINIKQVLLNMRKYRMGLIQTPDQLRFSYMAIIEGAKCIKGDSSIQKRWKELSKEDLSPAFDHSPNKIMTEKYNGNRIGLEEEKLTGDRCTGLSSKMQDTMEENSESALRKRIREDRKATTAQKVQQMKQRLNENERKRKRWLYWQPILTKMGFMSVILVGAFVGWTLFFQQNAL
Outline: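 Enzyme (e.g. PTPN2 0.025 ng/ul) mixed about 2 min with compound at 10 serial concentrations in 50 mM HEPES pH 7.5, 150 mM NaCl, 0.5 mM EDTA, 1 mM DTT, 0.001% Tween-20 at room temperature. DiFMUP added at each enzyme's Km (about 45 μM for PTPN2). DiFMU fluorescence (ex 360/em 450 nm) followed 15-30 min; IC50 from 4-parameter fit of rates.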

Row | IC50 (PTPN1 (i.e., PTP1B)) [µM] | IC50 (PTPN2 (i.e., TC-PTP)) [µM] | Compound
1 | ≤ 1 | > 1 | Cn1cc(-c2ccc(O)c(N3CC(=O)NS3(=O)=O)c2F)nc1C1CC1(F)F (stereo not shown) [Compound 472, 5-(3-(2-(2,2-difluorocyclopropyl)-1-methyl-1H-imidazol-4-yl)-2-fluoro-6-hydroxyphenyl)-1,2,5-thiadiazolidin-3-one 1,1-dioxide]
2 | ≤ 1 | ≤ 1 | N#CC1(n2cc(-c3ccc(O)c(N4CC(=O)NS4(=O)=O)c3F)c(F)n2)CC1 [Compound 474, 1-(4-(3-(1,1-dioxido-4-oxo-1,2,5-thiadiazolidin-2-yl)-2-fluoro-4-hydroxyphenyl)-3-fluoro-1H-pyrazol-1-yl)cyclopropane-1-carbonitrile]
3 | ≤ 1 | ≤ 1 | O=C1CN(c2c(O)ccc(-c3cn(C4CCS(=O)(=O)CC4)cn3)c2F)S(=O)(=O)N1 [Compound 412, 5-(3-(1-(1,1-dioxidotetrahydro-2H-thiopyran-4-yl)-1H-imidazol-4-yl)-2-fluoro-6-hydroxyphenyl)-1,2,5-thiadiazolidin-3-one 1,1-dioxide]
4 | ≤ 1 | ≤ 1 | COCCCc1cc(-c2ccc(O)c(N3CC(=O)NS3(=O)=O)c2F)[nH]n1 [Compound 243, 5-(2-fluoro-6-hydroxy-3-(3-(3-methoxypropyl)-1H-pyrazol-5-yl)phenyl)-1,2,5-thiadiazolidin-3-one 1,1-dioxide]
5 | ≤ 1 | ≤ 1 | CC(C)CCn1ccc(-c2ccc(O)c(N3CC(=O)NS3(=O)=O)c2F)n1 [Compound 196, 5-(2-fluoro-6-hydroxy-3-(1-isopentyl-1H-pyrazol-3-yl)phenyl)-1,2,5-thiadiazolidin-3-one 1,1-dioxide]
6 | ≤ 1 | ≤ 1 | O=C1CN(c2c(O)ccc(C3=CCSCC3)c2F)S(=O)(=O)N1 [Compound 294, 5-(3-(3,6-dihydro-2H-thiopyran-4-yl)-2-fluoro-6-hydroxyphenyl)-1,2,5-thiadiazolidin-3-one 1,1-dioxide]
7 | ≤ 1 | ≤ 1 | O=C1CN(c2c(O)ccc(-c3cnn(Cc4cccc(F)c4)c3)c2F)S(=O)(=O)N1 [Compound 222, 5-(2-fluoro-3-(1-(3-fluorobenzyl)-1H-pyrazol-4-yl)-6-hydroxyphenyl)-1,2,5-thiadiazolidin-3-one 1,1-dioxide]
8 | ≤ 1 | ≤ 1 | O=C1CN(c2c(O)ccc(-c3ccc(NC(=O)C4CC4)cc3)c2F)S(=O)(=O)N1 [Compound 395, N-(3′-(1,1-dioxido-4-oxo-1,2,5-thiadiazolidin-2-yl)-2′-fluoro-4′-hydroxy-[1,1′-biphenyl]-4-yl)cyclopropanecarboxamide]
9 | ≤ 1 | ≤ 1 | O=C1CN(c2c(O)ccc(-c3cn(Cc4cccnc4)cn3)c2F)S(=O)(=O)N1 [Compound 457, 5-(2-fluoro-6-hydroxy-3-(1-(pyridin-3-ylmethyl)-1H-imidazol-4-yl)phenyl)-1,2,5-thiadiazolidin-3-one 1,1-dioxide]
10 | ≤ 1 | ≤ 1 | CCCCC1C=C(c2ccc(O)c(N3CC(=O)NS3(=O)=O)c2F)CN1 (stereo not shown) [Compound 523, 5-(3-(5-butyl-2,5-dihydro-1H-pyrrol-3-yl)-2-fluoro-6-hydroxyphenyl)-1,2,5-thiadiazolidin-3-one 1,1-dioxide]
11 | ≤ 1 | ≤ 1 | N#Cc1cccc(-n2cnc(-c3ccc(O)c(N4CC(=O)NS4(=O)=O)c3F)c2)c1 [Compound 361, 3-(4-(3-(1,1-dioxido-4-oxo-1,2,5-thiadiazolidin-2-yl)-2-fluoro-4-hydroxyphenyl)-1H-imidazol-1-yl)benzonitrile]
12 | ≤ 1 | ≤ 1 | CC(C)CNC1(c2cc(-c3ccc(O)c(N4CC(=O)NS4(=O)=O)c3F)nn2C)CC1 [Compound 269, 5-(2-fluoro-6-hydroxy-3-(5-(1-(isobutylamino)cyclopropyl)-1-methyl-1H-pyrazol-3-yl)phenyl)-1,2,5-thiadiazolidin-3-one 1,1-dioxide]
13 | ≤ 1 | ≤ 1 | CC1(n2cc(-c3ccc(O)c(N4CC(=O)NS4(=O)=O)c3F)cn2)CC1 [Compound 324, 5-(2-fluoro-6-hydroxy-3-(1-(1-methylcyclopropyl)-1H-pyrazol-4-yl)phenyl)-1,2,5-thiadiazolidin-3-one 1,1-dioxide]
14 | ≤ 1 | ≤ 1 | O=C1CN(c2c(O)ccc(-c3cc(C4CCCC4)n[nH]3)c2F)S(=O)(=O)N1 [Compound 266, 5-(3-(3-cyclopentyl-1H-pyrazol-5-yl)-2-fluoro-6-hydroxyphenyl)-1,2,5-thiadiazolidin-3-one 1,1-dioxide]
15 | ≤ 1 | ≤ 1 | N#Cc1ccc(Cn2cc(-c3ccc(O)c(N4CC(=O)NS4(=O)=O)c3F)cn2)cc1 [Compound 224, 4-((4-(3-(1,1-dioxido-4-oxo-1,2,5-thiadiazolidin-2-yl)-2-fluoro-4-hydroxyphenyl)-1H-pyrazol-1-yl)methyl)benzonitrile]
16 | ≤ 1 | ≤ 1 | N#CC1(n2cc(-c3ccc(O)c(N4CC(=O)NS4(=O)=O)c3F)cn2)CC1 [Compound 484, 1-(4-(3-(1,1-dioxido-4-oxo-1,2,5-thiadiazolidin-2-yl)-2-fluoro-4-hydroxyphenyl)-1H-pyrazol-1-yl)cyclopropane-1-carbonitrile]
17 | ≤ 1 | ≤ 1 | CC(C)CCC1C=C(c2ccc(O)c(N3CC(=O)NS3(=O)=O)c2F)CN1 (stereo not shown) [Compound 541, 5-(2-fluoro-6-hydroxy-3-(5-isopentyl-2,5-dihydro-1H-pyrrol-3-yl)phenyl)-1,2,5-thiadiazolidin-3-one 1,1-dioxide]
18 | ≤ 1 | ≤ 1 | Cc1ccc(-c2ccc(O)c(N3CC(=O)NS3(=O)=O)c2F)s1 [Compound 128, 5-(2-fluoro-6-hydroxy-3-(5-methylthiophen-2-yl)phenyl)-1,2,5-thiadiazolidin-3-one 1,1-dioxide]
19 | > 1 | > 1 | O=C1CN(c2c(O)ccc(-c3nnc(-c4ccccc4)o3)c2F)S(=O)(=O)N1 [Compound 121, 5-(2-fluoro-6-hydroxy-3-(5-phenyl-1,3,4-oxadiazol-2-yl)phenyl)-1,2,5-thiadiazolidin-3-one 1,1-dioxide]
20 | ≤ 1 | ≤ 1 | CC(C)CCc1ncc(-c2ccc(O)c(N3CC(=O)NS3(=O)=O)c2F)[nH]1 [Compound 334, 5-(2-fluoro-6-hydroxy-3-(2-isopentyl-1H-imidazol-5-yl)phenyl)-1,2,5-thiadiazolidin-3-one 1,1-dioxide]
21 | ≤ 1 | ≤ 1 | CCn1nc(-c2ccc(O)c(N3CC(=O)NS3(=O)=O)c2F)cc1C1CC1(F)F (stereo not shown) [Compound 494, 5-(3-(5-(2,2-difluorocyclopropyl)-1-ethyl-1H-pyrazol-3-yl)-2-fluoro-6-hydroxyphenyl)-1,2,5-thiadiazolidin-3-one 1,1-dioxide]
22 | ≤ 1 | ≤ 1 | Cn1cc(-c2ccc(O)c(N3CC(=O)NS3(=O)=O)c2F)nc1N [Compound 503, 5-(3-(2-amino-1-methyl-1H-imidazol-4-yl)-2-fluoro-6-hydroxyphenyl)-1,2,5-thiadiazolidin-3-one 1,1-dioxide]
23 | ≤ 1 | ≤ 1 | O=C1CN(c2c(O)ccc(-c3cnn(-c4cccnc4)c3)c2F)S(=O)(=O)N1 [Compound 102, 5-(2-fluoro-6-hydroxy-3-(1-(pyridin-3-yl)-1H-pyrazol-4-yl)phenyl)-1,2,5-thiadiazolidin-3-one 1,1-dioxide]
24 | ≤ 1 | ≤ 1 | Cc1nn(C)cc1-c1ccc(O)c(N2CC(=O)NS2(=O)=O)c1F [Compound 142, 5-(3-(1,3-dimethyl-1H-pyrazol-4-yl)-2-fluoro-6-hydroxyphenyl)-1,2,5-thiadiazolidin-3-one 1,1-dioxide]
25 | ≤ 1 | ≤ 1 | Cc1cc(-c2ccc(O)c(N3CC(=O)NS3(=O)=O)c2F)[nH]n1 [Compound 183, 5-(2-fluoro-6-hydroxy-3-(3-methyl-1H-pyrazol-5-yl)phenyl)-1,2,5-thiadiazolidin-3-one 1,1-dioxide]

Row | Compound | IC50 (PTPN1 (i.e., PTP1B)) [µM] | IC50 (PTPN2 (i.e., TC-PTP)) [µM]
26 | O=C1CN(c2c(O)ccc(-c3cnn(C4CC5CCC(C4)N5C(=O)C4CC4)c3)c2F)S(=O)(=O)N1 (stereo not shown) [Compound 411, 5-(3-(1-(8-(cyclopropanecarbonyl)-8-azabicyclo[3.2.1]octan-3-yl)-1H-pyrazol-4-yl)-2-fluoro-6-hydroxyphenyl)-1,2,5-thiadiazolidin-3-one 1,1-dioxide] | ≤ 1 | ≤ 1
